Where a name gives a salt, the structure may show the parent alone.
Biological target: T1, 5HT6 human recombinant receptor (Homo sapiens, UniProt P50406)
T1 construct: purchased Receptor Biology; host or cells: HEK-293 cell membranes (recombinant expression)
Assay: Binding Test to 5-HT6 Receptors ([3H]-LSD displacement, HEK-293 membranes)
Conditions: [3H]-LSD 2.7 nM, 60 min, 37° C.; for inhibition at 0.1 µM: compound at 10^−7 M; for inhibition at 0.01 µM: compound at 10^−8 M
Description: Binding Test to 5-HT6 Receptors
Membranes of HEK-293 cells expressing the 5HT6 human recombinant receptor were supplied by Receptor Biology. In these membranes the receptor concentration is 2.18 pmol/mg protein and the protein concentration is 9.17 mg/ml. The experimental protocol follows the method of B. L. Roth et al. [B. L. Roth, S. C. Craigo, M. S. Choudhary, A. Uluer, F. J. Monsma, Y. Shen, H. Y. Meltzer, D. R. Sibley: Binding of Typical and Atypical Antipsychotic Agents to 5-Hydroxytryptamine-6 and Hydroxytriptamine-7 Receptors. The Journal of Pharmacology and Experimental Therapeutics, 1994, 268, 1403] with slight modifications. The commercial membrane is diluted (dilution 1:40) with the binding buffer: 50 mM Tris-HCl, 10 mM MgCl2, 0.5 mM EDTA (pH 7.4). The radioligand used is [^3H]-LSD at a concentration of 2.7 nM with a final volume of 200 μl. Incubation is initiated by adding 100 μl of the membrane suspension (≈22.9 μg membrane protein), and continues for 60 minutes at a temperature of 37° C. Incubation ends by fast filtration in a Harvester Brandel Cell through glass fibre filters manufactured by Schleicher & Schuell GF 3362 pre-treated with a 0.5% polyethylenimine solution. The filters are washed three times with three millilitres of Tris-HCl 50 mM pH 7.4 buffer. The filters are transferred to phials and to each phial 5 ml of liquid scintillation cocktail Ecoscint H is added. The phials are allowed to reach equilibrium for several hours before being counted in a Wallac Winspectral 1414 scintillation counter. Non-specific binding is determined in the presence of 100 μM serotonin. The tests are performed in triplicate. The inhibition constants (Ki, nM) are calculated by non-linear regression analysis using the program EBDA/LIGAND [Munson and Rodbard, Analytical Biochemistry, 1980, 107, 220].

T1 sequence (P50406 whole entry): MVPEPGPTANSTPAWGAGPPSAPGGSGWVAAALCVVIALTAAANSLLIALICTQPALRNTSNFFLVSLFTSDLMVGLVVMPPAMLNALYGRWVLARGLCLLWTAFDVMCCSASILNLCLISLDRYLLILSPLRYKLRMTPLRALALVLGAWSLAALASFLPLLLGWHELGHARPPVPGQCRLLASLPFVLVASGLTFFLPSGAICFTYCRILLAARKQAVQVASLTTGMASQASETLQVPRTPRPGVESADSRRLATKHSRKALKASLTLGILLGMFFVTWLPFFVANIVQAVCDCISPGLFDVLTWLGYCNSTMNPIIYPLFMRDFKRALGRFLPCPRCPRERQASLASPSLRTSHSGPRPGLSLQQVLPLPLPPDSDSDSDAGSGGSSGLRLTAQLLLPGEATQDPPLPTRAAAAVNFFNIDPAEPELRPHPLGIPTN

Structure (SMILES) | inhibition at 0.1 µM [%] | inhibition at 0.01 µM [%]
O=S(=O)(Nc1ccc2c(c1)C(=NNC1=NCCN1)CC2)c1c(Cl)nc2sccn12 [Compound 24, 6-chloro-N-[3-(4,5-dihydro-1H-imidazol-2-ylhydrazono)-2,3-dihydro-1H-inden-5-yl]imidazo[2,1-b][1,3]thiazole-5-sulfonamide hydrochloride] | 87.7 | 83.3
CC1Cc2ccc(NS(=O)(=O)c3c(Cl)nc4sccn34)cc2/C1=N\NC(=N)N (centres unmarked) [Compound 11, 2-(6-{[(6-chloroimidazo[2,1-b][1,3]thiazol-5-yl)sulfonyl]amino}-2-methyl-2,3-dihydro-1H-inden-1-ylidene)hydrazinecarboximidamide] | 91.1 | 84.7
N=C(N)N/N=C1/CCc2ccc(NS(=O)(=O)c3ccc4ccccc4c3)cc21 [Compound 8, 2-{6-[(2-naphthylsulfonyl)amino]-2,3-dihydro-1H-inden-1-ylidene}hydrazinecarboximidamide hydrochloride] | 82.2 | 56.1
CC1(C)CC(=NNC(=N)N)c2cc(NS(=O)(=O)c3c(Cl)nc4sccn34)ccc21 [Compound 20, 2-(6-{[(6-chloroimidazo[2,1-b][1,3]thiazol-5-yl)sulfonyl]amino}-3,3-dimethyl-2,3-dihydro-1H-inden-1-ylidene)hydrazinecarboximidamide hydrochloride] | 87.7 | 77.2
N=C(N)NN=C1CCc2cc(NS(=O)(=O)c3c(Cl)nc4sccn34)ccc21 [Compound 21, 2-(5-{[(6-chloroimidazo[2,1-b][1,3]thiazol-5-yl)sulfonyl]amino}-2,3-dihydro-1H-inden-1-ylidene)hydrazinecarboximidamide hydrochloride] | 86.9 | 78.1
CN1CCN(C2CC(C)(C)c3ccc(NS(=O)(=O)c4c(Cl)nc5sccn45)cc32)CC1 (centres unmarked) [Compound 15, 6-chloro-N-[1,1-dimethyl-3-(4-methylpiperazin-1-yl)-2,3-dihydro-1H-inden-5-yl]imidazo[2,1-b][1,3]thiazole-5-sulfonamide] | 30.3 | -6.6
CN1CCN(C2CCc3ccc(N(C)S(=O)(=O)c4c(Cl)nc5sccn45)cc32)CC1 (centres unmarked) [Compound 16, 6-chloro-N-methyl-N-[3-(4-methylpiperazin-1-yl)-2,3-dihydro-1H-inden-5-yl]imidazo[2,1-b][1,3]thiazole-5-sulfonamide] | 72.7 | 29
Cc1c(S(=O)(=O)Nc2ccc3c(c2)C(N2CCN(C)CC2)CC3)sc2ccc(Cl)cc12 (centres unmarked) [Compound 3, N-[3-(4-methylpiperazin-1-yl)-2,3-dihydro-1H-inden-5-yl]-5-chloro-3-methylbenzo[b]thiophene-2-sulfonamide] | 87.9 | 55.7
O=S(=O)(Nc1ccc2c(c1)C(N1CCNCC1)CC2)c1c(Cl)nc2sccn12 (centres unmarked) [Compound 5, N-[3-(piperazin-1-yl)-2,3-dihydro-1H-inden-5-yl]-6-chloroimidazo[2,1-b][1,3]thiazole-5-sulfonamide] | 85.6 | 63.6
CN(c1ccc2c(c1)/C(=N\NC(=N)N)CC2)S(=O)(=O)c1c(Cl)nc2sccn12 [Compound 22, 2-(6-{[(6-chloroimidazo[2,1-b][1,3]thiazol-5-yl)sulfonyl](methyl)amino}-2,3-dihydro-1H-inden-1-ylidene)hydrazinecarboximidamide hydrochloride] | 89.2 | 83.9
N=C(N)N/N=C1/CCc2ccc(NS(=O)(=O)c3c(Cl)nc4sccn34)cc21 [Compound 9, 2-(6-{[(6-chloroimidazo[2,1-b][1,3]thiazol-5-yl)sulfonyl]amino}-2,3-dihydro-1H-inden-1-ylidene)hydrazinecarboximidamide] | 89.6 | 84.7
CN1CCN(C2CCc3ccc(NS(=O)(=O)c4c(Cl)nc5sccn45)cc32)CC1 (racemic) [Compound 4, N-[3-(4-methylpiperazin-1-yl)-2,3-dihydro-1H-inden-5-yl]-6-chloroimidazo[2,1-b][1,3]thiazole-5-sulfonamide] | 83.4 | 63
CN1CCOc2cc(S(=O)(=O)Nc3ccc4c(c3)C(=NNC3=NCCN3)CC4)ccc21 [Compound 26, N-[3-(4,5-dihydro-1H-imidazol-2-ylhydrazono)-2,3-dihydro-1H-inden-5-yl]-4-methyl-3,4-dihydro-2H-1,4-benzoxazine-7-sulfonamide hydrochloride] | 84.6 | 51
CN1CCOc2cc(S(=O)(=O)Nc3ccc4c(c3)/C(=N\NC(=N)N)CC4)ccc21 [Compound 23, 2-(6-{[(4-methyl-3,4-dihydro-2H-1,4-benzoxazine-7-yl)sulfonyl]amino}-2,3-dihydro-1H-inden-1-ylidene)hydrazinecarboximidamide hydrochloride] | 87.3 | 69.3
CN1CCN(C2CCc3cc(NS(=O)(=O)c4c(Cl)nc5sccn45)ccc32)CC1 (centres unmarked) [Compound 14, 6-chloro-N-[1-(4-methylpiperazin-1-yl)-2,3-dihydro-1H-inden-5-yl]imidazo[2,1b][1,3]thiazole-5-sulfonamide] | 85.8 | 75.5
CN1CCN(C2CCc3ccc(NS(=O)(=O)c4ccc5ccccc5c4)cc32)CC1 (centres unmarked) [Compound 2, N-[3-(4-methylpiperazin-1-yl)-2,3-dihydro-1H-inden-5-yl]naphtalene-2-sulfonamide] | 89.1 | 71.6

Reference: US20100069378A1, “SUBSTITUTED INDANYL SULFONAMIDE COMPOUNDS, THEIR PREPARATION AND USE AS MEDICAMENTS” (LABORATORIOS DEL DR. ESTEVE, S.A., priority 2006, published 2010)
